Test results taken from ChEMBL document CHEMBL1134411, “Antitumor benzothiazoles. 14. Synthesis and in vitro biological properties of fluorinated 2-(4-aminophenyl)benzothiazoles” (2001).

Columns and labels:
Assay type in all cases: functional
OVCAR-4 = experiment: Growth inhibition against ovarian cancer cell line OVCAR-4; conditions: Homo sapiens
NCI-H460 = experiment: Growth inhibition against non-small cell lung cancer cell line NCI-H460; conditions: Homo sapiens
MCF7 = experiment: Growth inhibition against breast cancer line MCF-7; conditions: Homo sapiens
[1] = Mean GI50 values are recorded over the NCI 60-cell panel.; conditions: Homo sapiens
NCI-H226 = experiment: Growth inhibition against non-small cell lung cancer cell line […]; conditions: Homo sapiens
[2] = Growth inhibition against cancer cell line TH-10; conditions: Homo sapiens, Cancer cell lines
[3] = Growth inhibition against ovarian cancer cell line IGROV1; conditions: Homo sapiens, IGROV-1
OVCAR-5 = experiment: Growth inhibition against ovarian cancer cell line OVCAR-5; conditions: Homo sapiens
T47D = experiment: Growth inhibition against breast cancer line T-47-D; conditions: Homo sapiens
HCC 2998 = experiment: Growth inhibition against colon cancer cell line HCC2998; conditions: Homo sapiens

## Nc1ccc(-c2nc3cc(F)ccc3s2)cc1
OVCAR-4
  GI50: 13.5 µM
NCI-H460
  GI50: 0.87 µM
MCF7
  GI50: < 0.01 µM
[1]
  GI50: 23.4 µM
NCI-H226
  GI50: < 0.01 µM
[2]
  GI50: 11.5 µM
[3]
  GI50: 11.5 µM
OVCAR-5
  GI50: 29.5 µM
T47D
  GI50: 0.26 µM

## Nc1ccc(-c2nc3ccc(F)cc3s2)cc1I
OVCAR-4
  GI50: 0.03 µM
NCI-H460
  GI50: > 100 µM
HCC 2998
  GI50: 0.32 µM
MCF7
  GI50: < 0.01 µM
[1]
  GI50: 33.9 µM
NCI-H226
  GI50: 0.07 µM
[2]
  GI50: < 0.01 µM
[3]
  GI50: < 0.01 µM
OVCAR-5
  GI50: 0.1 µM
T47D
  GI50: < 0.01 µM

## Cc1cc(-c2nc3c(F)cccc3s2)ccc1N
OVCAR-4
  GI50: 20.9 µM
NCI-H460
  GI50: 1 µM
HCC 2998
  GI50: > 100 µM
MCF7
  GI50: < 0.01 µM
[1]
  GI50: 34.6 µM
NCI-H226
  GI50: 5.5 µM
[3]
  GI50: 22.9 µM
OVCAR-5
  GI50: 1.7 µM
T47D
  GI50: < 0.01 µM

## Nc1ccc(-c2nc3ccc(F)cc3s2)cc1
OVCAR-4
  GI50: 22.9 µM
NCI-H460
  GI50: 24.5 µM
HCC 2998
  GI50: 17.8 µM
MCF7
  GI50: < 0.01 µM
[1]
  GI50: 30.2 µM
NCI-H226
  GI50: 46.8 µM
[2]
  GI50: 26.3 µM
[3]
  GI50: 21.3 µM
OVCAR-5
  GI50: 26.9 µM

## Cc1cc(-c2nc3ccccc3s2)ccc1N
OVCAR-4
  GI50: 1.1 µM
NCI-H460
  GI50: 29.5 µM
MCF7
  GI50: < 0.01 µM
[1]
  GI50: 12.9 µM
NCI-H226
  GI50: 18.6 µM
[2]
  GI50: < 0.01 µM
[3]
  GI50: < 0.01 µM
OVCAR-5
  GI50: 1.9 µM
T47D
  GI50: 0.02 µM

## Nc1ccc(-c2nc3cc(F)ccc3s2)cc1Cl
OVCAR-4
  GI50: 0.32 µM
NCI-H460
  GI50: 0.04 µM
MCF7
  GI50: < 0.01 µM
[1]
  GI50: 5.8 µM
NCI-H226
  GI50: 0.03 µM
[3]
  GI50: < 0.01 µM
OVCAR-5
  GI50: < 0.01 µM
T47D
  GI50: 0.04 µM

## Cc1cc(-c2nc3ccc(F)cc3s2)ccc1N
OVCAR-4
  GI50: 0.01 µM
NCI-H460
  GI50: 0.1 µM
HCC 2998
  GI50: 34.7 µM
MCF7
  GI50: < 0.01 µM
[1]
  GI50: 47.9 µM
NCI-H226
  GI50: 60.3 µM
[2]
  GI50: < 0.01 µM
[3]
  GI50: 1.3 µM
OVCAR-5
  GI50: > 100 µM

## Nc1ccc(-c2nc3ccccc3s2)cc1C(F)(F)F
OVCAR-4
  GI50: 15.8 µM
NCI-H460
  GI50: 14.5 µM
HCC 2998
  GI50: 10.7 µM
MCF7
  GI50: 1.5 µM
[1]
  GI50: 14.1 µM
NCI-H226
  GI50: 15.1 µM
[2]
  GI50: 13.2 µM
[3]
  GI50: 2.6 µM
OVCAR-5
  GI50: 17.4 µM
T47D
  GI50: 5.4 µM

## Nc1ccc(-c2nc3ccccc3s2)cc1F
OVCAR-4
  GI50: 18.6 µM
NCI-H460
  GI50: < 0.01 µM
HCC 2998
  GI50: 0.1 µM
MCF7
  GI50: < 0.01 µM
[1]
  GI50: 14.5 µM
NCI-H226
  GI50: < 0.01 µM
[2]
  GI50: < 0.01 µM
[3]
  GI50: < 0.01 µM
OVCAR-5
  GI50: < 0.01 µM
T47D
  GI50: < 0.01 µM

## Nc1ccc(-c2nc3cc(F)ccc3s2)cc1Br
OVCAR-4
  GI50: 24 µM
NCI-H460
  GI50: 0.11 µM
HCC 2998
  GI50: < 0.01 µM
MCF7
  GI50: < 0.01 µM
[1]
  GI50: 5.1 µM
NCI-H226
  GI50: 0.13 µM
[2]
  GI50: 0.05 µM
[3]
  GI50: < 0.01 µM
OVCAR-5
  GI50: 0.05 µM
T47D
  GI50: 0.02 µM

## Cc1cc(-c2nc3cc(F)ccc3s2)ccc1N
OVCAR-4
  GI50: < 0.01 µM
NCI-H460
  GI50: 0.05 µM
MCF7
  GI50: < 0.01 µM
[1]
  GI50: 4.4 µM
NCI-H226
  GI50: 1.3 µM
[2]
  GI50: < 0.01 µM
[3]
  GI50: < 0.01 µM
OVCAR-5
  GI50: < 0.01 µM
T47D
  GI50: < 0.01 µM

## Nc1ccc(-c2nc3cc(F)ccc3s2)cc1I
OVCAR-4
  GI50: < 0.01 µM
HCC 2998
  GI50: < 0.01 µM
MCF7
  GI50: < 0.01 µM
[1]
  GI50: 7.6 µM
NCI-H226
  GI50: 10.2 µM
[2]
  GI50: 0.07 µM
[3]
  GI50: < 0.01 µM
OVCAR-5
  GI50: 0.28 µM
T47D
  GI50: 0.13 µM

## Cc1cc(-c2nc3cc(F)c(F)cc3s2)ccc1N
OVCAR-4
  GI50: 60.3 µM
NCI-H460
  GI50: > 100 µM
HCC 2998
  GI50: > 100 µM
MCF7
  GI50: < 0.01 µM
[1]
  GI50: 67.6 µM
[2]
  GI50: < 0.01 µM
[3]
  GI50: < 0.01 µM
OVCAR-5
  GI50: > 100 µM
T47D
  GI50: < 0.01 µM

## Cc1cc(-c2nc3ccc(O)cc3s2)ccc1N
OVCAR-4
  GI50: 37.2 µM
HCC 2998
  GI50: > 100 µM
MCF7
  GI50: 56.2 µM
[1]
  GI50: 41.7 µM
NCI-H226
  GI50: 60.3 µM
[2]
  GI50: 77.6 µM
[3]
  GI50: 47.9 µM
OVCAR-5
  GI50: 83.2 µM
T47D
  GI50: 22.4 µM

## Nc1ccc(-c2nc3ccc(F)cc3s2)cc1Cl
OVCAR-4
  GI50: 0.02 µM
NCI-H460
  GI50: 0.1 µM
HCC 2998
  GI50: 0.09 µM
MCF7
  GI50: < 0.01 µM
[1]
  GI50: 22.3 µM
NCI-H226
  GI50: 14.1 µM
[2]
  GI50: < 0.01 µM
[3]
  GI50: < 0.01 µM
OVCAR-5
  GI50: 0.07 µM

## Cc1cc(-c2nc3cccc(F)c3s2)ccc1N
OVCAR-4
  GI50: 7.4 µM
NCI-H460
  GI50: 4.2 µM
HCC 2998
  GI50: 13.8 µM
MCF7
  GI50: < 0.01 µM
[1]
  GI50: 20 µM
[2]
  GI50: 0.04 µM
[3]
  GI50: 0.07 µM
OVCAR-5
  GI50: 1.3 µM
T47D
  GI50: 0.02 µM
